Positions count from the first letter of the chain named.
Tests used:
amide synthetase McbA [1] = test: Amidation assay with purified McbA variants, products analyzed by LC-MS; assay type: biochemical, Marinactinospora thermotolerans; settings: for Fold-Increase in yield: best ML-predicted variant (ML-McbA) versus wt-McbA for the named product, purified enzyme 0.5 mg/mL, n=3
Procedure: (§1) Amide products (along with acid substrates and some adenylated acid intermediates) were analyzed using an Agilent G6125B Single Quadrupole LC/MSD system equipped with an electrospray ionization source set to positive ionization mode. The quenched samples were centrifuged for 10 min at 4,500×g to remove precipitated proteins. A separate 384-well plate for sample injection into the HPLC-MS was prepared by diluting 5 μL of the quenched samples with 25 μL of methanol using the Integra VIAFLO. Trace amounts of compounds were detected using MS, while many compounds were present in high enough concentration to quantify by diode array detector (DAD) at 254 nm. Compounds were separated on a Luna C18 Column (Phenomenex 00D-4251-B0) using mobile phases (A) H2O with 0.1% formic acid and (B) Acetonitrile. The general method for chromatographic separation was carried out using the following gradients at a constant flow rate of 0.5 mL/min: 0 min 5% B; 1 min 5% B; 4 min 95% B; 4.5 min 95% B; 5 min 5% B. For the MS, capillary voltage was set at 3 kV, and nitrogen gas was used for nebulizing (35 psig) and drying (12 l/min, 350° C.). The MS was calibrated using Tuning Mix (Agilent G2421-60001) before measurements were taken. MS data were acquired with a scan range of 50-600 m/z with various SIM m/z's according to which compound the inventors were screening for. LC-MS data were collected and analyzed using Agilent OpenLab CDS ChemStation software. The product yield was calculated by dividing the DAD peak area for the amide product by the sums of the peak areas of both the amide and the acid substrate.
Amidation assays for the purified McbA variants were set up similarly as described above. 8-μL reactions were assembled in triplicate, containing […], 10 mM MgCl2, 10 U/mL pyrophosphatase (Sigma I5907), 0.5 mg/mL McbA, 10% v/v DMSO, and volume to fill of 50 mM potassium phosphate pH 7.5. For assaying the production of cinchocaine and procainamide, substrates were decreased in stoichiometric amounts to 20 mM and 10 mM, respectively. This was to compensate for an observed poor solubility of these two acids (2-butoxyquinoline-4-carboxylic acid and 4-aminobenzoic acid) in the purified reaction at 10% v/v DMSO. Reactions were incubated at 37° C. for 16 hours and then quenched with 25-μL of methanol. The CAS numbers of all chemicals used in the hot spot screens, as well as the amide standards the inventors purchased, can be found in Table 1.
With the MLDE strategy validated, the approach could enable parallelized protein engineering for a wide variety of molecules (FIG. 14A). Starting with an identified target reaction from our substrate scope screen (FIGS. 5A-5F), we could use the same instance of our 1,280 single mutant McbA variant library to perform an HSS, select four hot spots, train and implement our machine learning model, and experimentally test the top 24 predictions (FIG. 14B). This approach was used to engineer distinct McbA mutants for the synthesis of an additional six pharmaceutical compounds (FIGS. 14B-14C). After identifying the best predicted variant for each reaction, the best variant for each reaction was expressed and purified, and the activity for each compound compared to wt-McbA (FIG. 14D). Fold-increase in yield observed compares wt-McbA to ML-McbA (n=3) for each small-molecule pharmaceutical. Increases in yield of the best mutant were observed ranging from 1.6-fold to 34-fold over wt-McbA for the six compounds tested.

amide synthetase McbA [2] = test: Substrate scope screen of McbA (all-by-all acids and amines, RP-HPLC); assay type: biochemical, Marinactinospora thermotolerans; settings: for wt conversion: conversion to the named amide product by wild-type McbA, ~1 μM enzyme, 25 mM substrates, 10% DMSO
Procedure: as §1, with “MS data were acquired with a scan range of 50-600 m/z with various SIM m/z's according to which compound the inventors were screening for.” left out
(§2) All high-throughput assays (hot spot screen, iterative site saturation mutagenesis, substrate scope, ML predictions validation, and ML prediction exploration) were assembled in 384-well plates (Bio-Rad) using an Integra VIAFLO liquid handling robot. […] The amidation assay was initiated by adding 3-μL of crude CFPS reaction containing an expressed McbA variant, with final concentrations of 25 mM ATP, 25 mM acid, 25 mM amine, 10% v/v DMSO, and ˜1 μM of enzyme (determined by ^14C-leucine incorporation using previously described protocols^66). […]

amide synthetase McbA [3] = test: High-throughput amidation assay with crude CFPS-expressed McbA variants (hot spot screen, ISM); assay type: biochemical, Marinactinospora thermotolerans; settings: for conversion (yield) of moclobemide: final screening conditions, moclobemide synthesis, 25 mM ATP, acid, amine, 10% v/v DMSO, 37° C. 16 hours
Procedure: as §1, with “MS data were acquired with a scan range of 50-600 m/z with various SIM m/z's according to which compound the inventors were screening for.” left out
as §2

[4] = Protein melting temperature by circular dichroism; assay type: physicochemical
Procedure: Protein melting temperature was determined using a Jasco J-810 circular dichroism spectrophotometer with a 10 mm path length cuvette monitored at 222 nm. McbA samples were first buffer exchanged into a 1× phosphate buffered saline solution, pH 7.4, and diluted to 0.2-0.4 mg/mL.

amide synthetase McbA [5] = test: Apparent steady-state kinetics, amide bond formation coupled to NADH oxidation; assay type: biochemical, Marinactinospora thermotolerans; settings: kcat/KM for the amine, versus wt-McbA
Procedure: McbA apparent kinetics for the amine pair of moclobemide (4-(2-aminoethyl)morpholine) were determined by enzymatically coupling amide bond formation (and the concomitant release of AMP from the acyl-AMP intermediate by its substitution with the amine) with the oxidation of NADH, as shown in FIGS. 7A-7B. Reactions contained 100 mM MOPS-KOH pH 7.8, 5 mM MgCl2, 2.5 mM phosphoenolpyruvate, 5 mM ATP, 0.3 mM NADH, 50 mM 4-chlorobenzoic acid, 15 U/mL pyruvate kinase and lactate dehydrogenase enzyme mix (Sigma-Aldrich P0294), 25 U/mL myokinase (Sigma-Aldrich 475941), and various concentrations (50-200 μg/mL) of the studied McbA variant. As the acid here (4-chlorobenzoic acid) has poor solubility in water and was dissolved in DMSO, the final reactions contained 10% v/v DMSO (equivalent to our amidation screens). 180-μL reactions were first equilibrated at 30° C. for 3 minutes and then initiated by adding 20-μL of amine. The initial velocity was determined for different concentrations of amine (0.1 mM-50 mM) by measuring NADH absorbance at 340 nm on a Cary 60 UV-Vis (Agilent). Data were collected and analyzed using the Cary WinUV Kinetics Application software (Agilent). Michaelis-Menten graphs were plotted in GraphPad Prism and fit using the default Michaelis-Menten non-linear regression analysis tool.

CCN(CC)CCNC(=O)c1ccc(N)c(Cl)c1 [Declopramide]
Fold-Increase in yield (amide synthetase McbA [1]): 2.7 fold

CCN(CC)CCNC(=O)c1cc(Cl)c(N)cc1OC [Metoclopramide]
wt conversion (amide synthetase McbA [2]): 3%

COc1cc(C(=O)NC2CCCNC2)cc(OC)c1OC (centres unmarked) [Troxipide]
Fold-Increase in yield (amide synthetase McbA [1]): 34 fold

COc1ccc(C(=O)NCc2ccc(OCCN(C)C)cc2)cc1OC [Itopride]
Fold-Increase in yield (amide synthetase McbA [1]): 1.6 fold

CCN(CC)CCNC(=O)c1ccc(N)cc1 [Procainamide]
Fold-Increase in yield (amide synthetase McbA [1]): 10 fold

COc1cc(C(=O)NCc2ccc(OCCN(C)C)cc2)cc(OC)c1OC [Trimethobenzamide]
Fold-Increase in yield (amide synthetase McbA [1]): 4.1 fold

CCCCOc1cc(C(=O)NCCN(CC)CC)c2ccccc2n1 [Cinchocaine]
Fold-Increase in yield (amide synthetase McbA [1]): 1.7 fold | wt conversion (amide synthetase McbA [2]): 2%

CCN1CCCC1CNC(=O)c1cc(S(N)(=O)=O)ccc1OC (centres unmarked) [Sulpiride]
Fold-Increase in yield (amide synthetase McbA [1]): 6 fold

B1: wt-McbA: wild-type amide bond synthetase McbA from Marinactinospora thermotolerans with CSL-tag, SEQ ID NO: 2 (protein)
chain: MEKKIWSHPQFEKGGSGENLYFQGGYARRVMDGIGEVAVTGAGGSVTGARLRHQVRLLAHALTEAGIPPGRGVACLHANTWRAIALRLAVQAIGCHYVGLRPTAAVTEQARAIAAADSAALVFEPSVEARAADLLERVSVPVVLSLGPTSRGRDILAASVPEGTPLRYREHPEGIAVVAFTSGTTGTPKGVAHSSTAMSACVDAAVSMYGRGPWRFLIPIPLSDLGGELAQCTLATGGTVVLLEEFQPDAVLEAIERERATHVFLAPNWLYQLAEHPALPRSDLSSLRRVVYGGAPAVPSRVAAARERMGAVLMQNYGTQEAAFIAALTPDDHARRELLTAVGRPLPHVEVEIRDDSGGTLPRGAVGEVWVRSPMTMSGYWRDPERTAQVLSGGWLRTGDVGTFDEDGHLHLTDRLQDIIIVEAYNVYSRRVEHVLTEHPDVRAAAVVGVPDPDSGEAVCAAVVVADGADPDPEHLRALVRDHLGDLHVPRRVEFVRSIPVTPAGKPDKVKVRTWFTD
modifications: CSL-tag
amide bond formation step for troxipide (amide synthetase McbA [1]; proficient at adenylating 3,4,5-trimethoxybenzoic acid, intermediate seen by LCMS): unable to catalyze amide bond formation | conversion (yield) of moclobemide (amide synthetase McbA [3]): 12% | stereoselectivity (amide synthetase McbA [2]; sulpiride synthesis): strongly favoring the synthesis of S-sulpiride over R-sulpiride

B2: qm-McbAmetoclopramide: quadruple mutant of McbA from ISM campaign for metoclopramide, SEQ ID NO: 146 (protein)
chain: B1 chain with V177S, T319C, A323F, A424T
activity over wt-McbA (amide synthetase McbA [3]; metoclopramide synthesis, after three rounds of ISM): ~30 fold

B3: ml-McbAtroxipide: best ML-predicted McbA variant for troxipide, SEQ ID NO: 155 (protein)
chain: B1 chain with V177A, A323L, A424T, R430V
increase in activity (amide synthetase McbA [1]; troxipide synthesis, versus wt-McbA): 34 fold

B4: qm-McbAmoclobemide: quadruple mutant of McbA from ISM campaign for moclobemide, SEQ ID NO: 145 (protein)
chain: B1 chain with V177S, I220S, A323F, R430L
melting point change versus wt-McbA [4]: did not significantly change | conversion (yield) of moclobemide (amide synthetase McbA [3]): 96% | increase in catalytic efficiency from wt-McbA (amide synthetase McbA [5]): 42 fold

Reference: patent US20250259704A1, “SYSTEMS AND METHODS FOR CELL-FREE ITERATIVE SITE SATURATION MUTAGENESIS AND ITS APPLICATION FOR THE DIRECTED EVOLUTION OF ENZYMES CATALYZING UNNATURAL REACTIONS” (Northwestern University, priority 2022, published 2025)
